Assay results as given in patent US11958842B2, “Substituted phenazines and methods of treating cancer and bacterial diseases” (Adjutec Pharma AS, priority 2016, dated 2024).
Like-named read-outs stand apart in the source and are kept apart here.

Legend:
Format in all cases: cell-based
[1] = test system: Molm13 cells; assay: Anti-AML activity, WST-1 viability (Example 72); settings: Homo sapiens
Method: Dry powder of analogs were dissolved in DMSO. IPC-18 rat AML cells (Lacaze, N. et al. Leuk. Res. 1983, 7, 145.) were cultured in DMEM medium (Sigma-Aldrich, St. Louis, Mo., USA) supplemented with 10% horse serum (Invitrogen, Carlsbad, Calif., USA), and antibiotics (50 U/mL of penicillin and 0.05 mg/mL streptomycin). Molm13 (Matsuo, Y. et al. Leukemia 1997, 11, 1469.) cells were cultured in RPMI supplemented with antibiotics (50 U/mL of penicillin and 0.05 mg/mL streptomycin) and 10% fetal bovine serum (FBS, Invitrogen, Carlsbad, Calif.) and kept in exponential growth before the experiments. Dilution series of iodinin analogs were added to medium and cell suspension added to reach a final cell concentration of 150 000 cells/ml in 0.1 mL in a 96 well tissue culture plate. […] The cells were incubated with the iodinin analogs for 22 h before WST-1 was added according to the manufacturers protocol, and the cells incubated further in 2 h. Mitochondrial conversion of WST-1 to its colored metabolite was measured by a plate reader at 450 nm, with 620 nm as the reference wavelength. The cells were next fixed by adding 4% buffered formaldehyde (PBS, pH 7.4, supplemented with 0.01 mg/mL Hoechst 33342 for nuclear visualization) to the cell suspension at 1:1 (v/v) ratio (final concentration of formaldehyde:[…]). The cells' nuclear and surface morphology were examined microscopically and results compared with the WST-1 viability assay. The results given in Table I are based on WST-1 data.

[2] = test system: human acute myeloid leukemia cell line MOLM-13; assay: Cytotoxicity, WST-1 and nuclear morphology (Example 73)
Method: (§1) All cell culturing media and serum were from Sigma-Aldrich (St. Louis, Mo., USA). Product Nos. are given in parentheses. The human acute myeloid leukemia cell line MOLM-13 was cultured in RPMI medium (R5886) enriched with […] (F7524) and 0.2 mM L-glutamine (G7513). The normal rat kidney epithelial (NRK) and the rat cardiomyoblast (H9c2) cells were cultured in DMEM medium (D6429) enriched with 10% fetal bovine serum (F7524). All cell lines were additionally supplemented with 100 IU/mL penicillin and […] (P0781). The cells were cultured in a humidified atmosphere either under 2% or 20% O2 at 37° C.
(§2) All analogues were dissolved in DMSO (D5879, Sigma-Aldrich) at concentrations between 2.5 and 20 mM before testing. For cytotoxic testing, the MOLM-13 cells were seeded as 20,000 cells/well, while NRK and H9c2 cells were seeded as 5,000 cells/well in 96-well Microplates (#167008, Thermo Scientific™ Nunc™ MicroWell™) with 100 μL medium/well. The cells were exposed to various concentrations of iodinin or its analogues for 24 hrs before the cell proliferation reagent WST-1 was used to assess the viability, in accordance with the manufacturer's instructions (11644807001, Roche Diagnostics, Sigma-Aldrich). The cells were next fixed in 2% buffered formaldehyde (pH 7.4) with the DNA-specific dye Hoechst 33342 (Polysciences Inc.) and assessed for cell death by UV-microscopy based on nuclear morphology. The highest concentration of analogue corresponded to 1% of DMSO, which alone gave less than 7% cell death as judged by nuclear morphology.
(§3) EC50 values were determined by analyses of WST-1 signal results as well as microscopic evaluation of cell death by four-parameter regression analyses using the SigmaPlot software (Systat Software inc. San Jose, Calif.):
(§4) [formula] where Y is the response (WST-1 signal or percent apoptosis), min and max are minimum and maximum response, X is concentration of analogue, EC50 equals the point of inflection, i.e. the point that gives half of maximum response, and h is the Hill's slope of the curve. The two methods gave consistent response curves for each analogue. In the case of Tirapazamine, where its colour interfered with the WST-1 signal, only microscopic evaluation of Hoechst stained cells was used in order to calculate its EC50 values.

[3] = test system: normal rat kidney epithelial (NRK) cells; assay: as above
Method: as §1, §2, §3, §4

[4] = test system: rat cardiomyoblast (H9c2) cells; assay: as above; settings: read-out: EC50 (μM) H9c2 19% O2
Method: as §1, §2, §3, §4

[5] = Molm 13 cells, 2% O2, 24 h of incubation, WST-1, read-out: Molm 13 IC50 2% O2
[6] = Molm 13 cells, 20% O2, 24 h of incubation, WST-1, read-out: Molm 13 IC50 20% O2
[7] = Homo sapiens, MOLM-13, 2% O2, 24 hours of incubation, read-out: EC50 (μM) MOLM-13 2% O2
[8] = Homo sapiens, MOLM-13, 19% O2, 24 hours of incubation, read-out: EC50 (μM) MOLM-13 19% O2
[9] = Rattus norvegicus, 2% O2, 24 hours of incubation, read-out: EC50 (μM) NRK 2% O2
[10] = Rattus norvegicus, 19% O2, 24 hours of incubation, read-out: EC50 (μM) NRK 19% O2
[11] = Rattus norvegicus, H9c2, 19% O2, 24 hours of incubation
[12] = Homo sapiens, MOLM-13, 24 h, read-out: EC50 (μM) MOLM-13 2% O2
[13] = Homo sapiens, MOLM-13, 24 h, read-out: EC50 (μM) MOLM-13 19% O2
[14] = MOLM-13, 2% O2, 24 hours of incubation, read-out: EC50 (μM) MOLM-13 2% O2
[15] = MOLM-13, 19% O2, 24 hours of incubation, read-out: EC50 (μM) MOLM-13 19% O2
[16] = Rattus norvegicus, 24 h, read-out: EC50 (μM) NRK 2% O2, NRK, 2% O2, 24 hours of incubation
[17] = Rattus norvegicus, 24 h, read-out: EC50 (μM) NRK 19% O2, NRK, 19% O2, 24 hours of incubation
[18] = H9c2, 19% O2, 24 hours of incubation

Structure (SMILES)	EC50 [2, 7] [µM]	EC50 [2, 8] [µM]	EC50 [3, 9] [µM]	EC50 [3, 10] [µM]	EC50 [4, 11] [µM]	also measured
COc1cccc2nc3c(OC)cccc3nc12 [Example 1a, 1,6-dimethoxyphenazine]	84 ± 6	72 ± 14				IC50 [1, 5]: > 10 µM; IC50 [1, 6]: > 10 µM
[O-][n+]1c2ccccc2[n+]([O-])c2c(O)cccc21 [Example 4a, 1-hydroxyphenazine 5,10-dioxide]						IC50 [1, 6]: 4.5 µM
CC(=O)Oc1cccc2c1[n+]([O-])c1cccc(O)c1[n+]2[O-] [Example 5d, 1-Acetoxy-6-hydroxyphenazine 5,10-dioxide]						IC50 [1, 5]: 5.61 µM; IC50 [1, 6]: 5.62 µM
CCOC(=O)COc1cccc2c1[n+]([O-])c1cc(C)c(C)cc1[n+]2[O-] [Example 6b, 1-(2-ethoxy-2-oxoethoxy)-7,8-dimethylphenazine 5,10-dioxide]	6.3 ± 0.25	8.3 ± 0.78	> 100	140 ± 2	> 100	
CN1CCN(C(=O)Oc2cccc3c2[n+]([O-])c2cc(Br)c(Br)cc2[n+]3[O-])CC1 [Example 8g, 7,8-dibromo-1-((4-methylpiperazine-1-carbonyl)oxy)phenazine 5,10-dioxide]						EC50 [2, 12]: 0.7 ± 0.04 µM; EC50 [2, 13]: 0.89 ± 0.03 µM; EC50 ([3]; read-out: EC50 (μM) NRK 2% O2, 2% O2, 24 hours of incubation): 62 ± 1.3 µM; EC50 ([3]; read-out: EC50 (μM) NRK 19% O2, 19% O2, 24 hours of incubation): 49 ± 1.8 µM; EC50 ([4]; Rattus norvegicus, H9c2, 24 h): 64 ± 9.2 µM
O=C(Oc1cccc2c1[n+]([O-])c1cccc(O)c1[n+]2[O-])N1CCCC1 [Example 8j, 1-hydroxy-6-((pyrrolidine-1-carbonyl)oxy)phenazine 5,10-dioxide]						EC50 [2, 14]: 0.79 ± 0.09 µM; EC50 [2, 15]: 0.86 ± 0.05 µM; EC50 [3, 16]: 15 ± 1 µM; EC50 [3, 17]: 9.6 ± 0.38 µM; EC50 [4, 18]: 12 ± 0.7 µM
Cc1c(C)[n+](O)c2c(O)cccc2[n+]1[O-] [Example 12, 5-hydroxy-2,3-dimethylquinoxaline 1,4-dioxide]	> 200	> 200				
Cc1c(C)[n+]([O-])c2c(OC(=O)N3CCN(C)CC3)cccc2[n+]1[O-] [Example 13, 2,3-dimethyl-5-((4-methylpiperazine-1-carbonyl)oxy)quinoxaline 1,4-dioxide]						EC50 [2, 14]: > 200 µM; EC50 [2, 15]: > 200 µM
O=C(Oc1cccc2c1[n+]([O-])c1cccc(OC(=O)N3CCCC3)c1[n+]2[O-])N1CCCC1 [Example 16a, 1,6-bis((pyrrolidine-1-carbonyl)oxy)phenazine 5,10-dioxide]						IC50 ([1]; MOLM-13, 24 h, read-out: Molm 13 IC50 20% O2): 0.95 µM
[O-][n+]1c2ccccc2[n+]([O-])c2c(O)cccc21 [Example 17, 1-hydroxyphenazine 5,10-dioxide]	12 ± 0.04	11 ± 1.8	> 100	79 ± 4.2	> 100	
CC(C)(C)OC(=O)COc1cccc2c1[n+]([O-])c1ccccc1[n+]2O [Example 19, 1-(2-(tert-butoxy)-2-oxoethoxy)phenazine 5,10-dioxide]	1.9 ± 0.11	2.2 ± 0.09	25 ± 1.9	26 ± 0.7	20 ± 2.1	
CCN(CC)C(=O)COc1cccc2c1[n+]([O-])c1ccccc1[n+]2[O-] [Example 21, 1-(2-(diethylamino)-2-oxoethoxy)phenazine 5,10-dioxide]	1.4 ± 0.15	1.2 ± 0.08	16 ± 1	13 ± 0.01	23 ± 0.1	
O=C(Oc1cccc2c1[n+]([O-])c1ccccc1[n+]2[O-])N1CCCC1 [Example 24, 1-((pyrrolidine-1-carbonyl)oxy)phenazine 5,10-dioxide]						EC50 [2, 14]: 1.2 ± 0.15 µM; EC50 [2, 15]: 1.5 ± 0.18 µM; EC50 [3, 16]: 21 ± 2.4 µM; EC50 [3, 17]: 18 ± 0.6 µM; EC50 [4, 18]: 13 ± 0.5 µM
CC(C)(C)OC(=O)COc1cccc2c1[n+]([O-])c1cccc(OCC(=O)OC(C)(C)C)c1[n+]2[O-] [Example 36, 1,6-bis(2-(tert-butoxy)-2-oxoethoxy)phenazine 5,10-dioxide]	3.3 ± 0.22	4.2 ± 0.2	27 ± 1.8	27 ± 1.2		
O=C(O)COc1cccc2c1[n+]([O-])c1cccc(OCC(=O)O)c1[n+]2[O-] [Example 37, 1,6-bis(carboxymethoxy)phenazine 5,10-dioxide]	39 ± 9	18 ± 3	> 200	> 200		
Cc1cc2c(cc1C)[n+]([O-])c1c(O)cccc1[n+]2[O-] [Example 48, 1-hydroxy-7,8-dimethylphenazine 5,10-dioxide]	2.3 ± 0.1	2.8 ± 0.25	> 50	> 50	> 50	
[O-][n+]1c2ccccc2[n+]([O-])c2cc(O)ccc21 [Example 60, 2-hydroxyphenazine 5,10-dioxide]	45 ± 3.5	128 ± 3			> 200	
CCOC(=O)COc1ccc2c(c1)[n+](O)c1ccccc1[n+]2O [Example 62, 2-(2-ethoxy-2-oxoethoxy)phenazine 5,10-dioxide]	15 ± 0.7	32 ± 5			45 ± 4.8	
CN1CCN(C(=O)Oc2ccc3c(c2)[n+](O)c2ccccc2[n+]3O)CC1 [Example 63, 2-((4-methylpiperazine-1-carbonyl)oxy)phenazine 5,10-dioxide]						EC50 [2, 12]: 3.5 ± 0.19 µM; EC50 [2, 13]: 14 ± 0.4 µM; EC50 ([4]; Rattus norvegicus, H9c2, 24 h): 53 ± 0.3 µM
Cc1cc2c(cc1C)[n+]([O-])c1cc(O)ccc1[n+]2[O-] [Example 64, 7-hydroxy-2,3-dimethylphenazine 5,10-dioxide]	50 ± 3.8	117 ± 1			> 200	
Cc1cc2c(cc1C)[n+](O)c1cc(OC(=O)N3CCN(C)CC3)ccc1[n+]2[O-] [Example 65, 2,3-dimethyl-7-((4-methylpiperazine-1-carbonyl)oxy)phenazine 5,10-dioxide]						EC50 [2, 12]: 2.5 ± 0.24 µM; EC50 [2, 13]: 17 µM; EC50 ([4]; Rattus norvegicus, H9c2, 24 h): 20 ± 2.4 µM
Nc1ccc2c(c1)[n+](O)c1ccccc1[n+]2[O-] [Example 67, 2-aminophenazine 5,10-dioxide]	7.6 ± 0.89	31 ± 1.4			80 ± 8.9	
Cc1c(C)[n+]([O-])c2c(OC(=O)N3CCOCC3)cccc2[n+]1[O-] [Example 69, 2,3-dimethyl-5-((morpholine-4-carbonyl)oxy)quinoxaline 1,4-dioxide]						EC50 [2, 14]: > 200 µM; EC50 [2, 15]: > 200 µM
